ChEMBL document CHEMBL1136236, “Design and parallel synthesis of piperidine libraries targeting the nociceptin (N/OFQ) receptor” (Bioorg Med Chem Lett, 2003)
Calls of active or inactive are those of the source. The calls are words filed in the database; no cut-off is given here.

Legend:
Nociceptin receptor [1] = biological target: T1, Nociceptin receptor (Homo sapiens, UniProt P41146); test: Inhibitory activity against human orphanin FQ receptor expressed in recombinant HEK 293 cells; assay type: cell-based; design: concentration or dose not given beside the values; conditions: HEK293; concentration not given here
Nociceptin receptor [2] = biological target: T1, Nociceptin receptor; test: Binding affinity against human orphanin FQ receptor expressed in recombinant HEK 293 cells; assay type: cell-based, HEK293
[3] = biological target: T2, Delta-type opioid receptor (Homo sapiens, UniProt P41143); test: Antagonistic activity against Opioid receptor delta 1; not active; assay type: functional
[4] = biological target: T3, Kappa-type opioid receptor (Homo sapiens, UniProt P41145); test: Antagonistic activity against opioid receptor kappa 1; assay type: functional
Nociceptin receptor [5] = biological target: T1, Nociceptin receptor; test: Antagonistic activity against orphan FQ receptor; assay type: functional
Mu-type opioid receptor [6] = biological target: T4, Mu-type opioid receptor (Homo sapiens, UniProt P35372); test: Antagonistic activity against opioid receptor mu1; assay type: functional
Mu-type opioid receptor [7] = biological target: T4, Mu-type opioid receptor; test: Selectivity ratio of Opioid receptor mu 1 binding to Orphanin FQ receptor
[8] = biological target: T2, Delta-type opioid receptor; test: Antagonistic activity against Opioid receptor delta 1; assay type: functional
[9] = biological target: T3, Kappa-type opioid receptor; test: Antagonistic activity against opioid receptor kappa 1; not active; assay type: functional
Nociceptin receptor [10] = biological target: T1, Nociceptin receptor; test: Inhibitory activity against human orphanin FQ receptor expressed in recombinant HEK 293 cells; inactive; assay type: cell-based; conditions: HEK293
Nociceptin receptor [11] = biological target: T1, Nociceptin receptor; test: Inhibitory activity against human orphanin FQ receptor expressed in recombinant HEK 293 cells; in active; assay type: cell-based; conditions: HEK293

T3 sequence (P41145 whole entry): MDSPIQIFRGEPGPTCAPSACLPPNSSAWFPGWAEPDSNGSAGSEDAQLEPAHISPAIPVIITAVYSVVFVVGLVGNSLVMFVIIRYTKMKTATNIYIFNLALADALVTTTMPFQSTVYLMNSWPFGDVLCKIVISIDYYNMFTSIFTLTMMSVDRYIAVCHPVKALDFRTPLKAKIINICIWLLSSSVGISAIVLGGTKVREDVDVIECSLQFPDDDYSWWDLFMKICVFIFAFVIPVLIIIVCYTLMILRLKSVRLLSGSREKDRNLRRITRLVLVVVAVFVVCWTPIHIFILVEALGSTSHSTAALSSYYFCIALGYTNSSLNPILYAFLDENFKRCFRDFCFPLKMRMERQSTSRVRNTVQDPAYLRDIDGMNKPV
T4 sequence (P35372 whole entry): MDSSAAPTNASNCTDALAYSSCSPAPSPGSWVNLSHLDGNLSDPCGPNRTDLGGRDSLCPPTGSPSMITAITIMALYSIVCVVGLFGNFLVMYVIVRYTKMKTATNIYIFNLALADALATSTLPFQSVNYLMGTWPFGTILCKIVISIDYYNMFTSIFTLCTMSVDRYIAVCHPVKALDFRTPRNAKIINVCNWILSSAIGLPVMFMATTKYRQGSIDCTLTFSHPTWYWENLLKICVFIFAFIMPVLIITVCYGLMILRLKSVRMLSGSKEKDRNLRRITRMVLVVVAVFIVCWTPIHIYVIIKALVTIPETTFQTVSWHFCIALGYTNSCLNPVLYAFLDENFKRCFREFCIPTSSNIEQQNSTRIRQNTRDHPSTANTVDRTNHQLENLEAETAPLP
T2 sequence (P41143 whole entry): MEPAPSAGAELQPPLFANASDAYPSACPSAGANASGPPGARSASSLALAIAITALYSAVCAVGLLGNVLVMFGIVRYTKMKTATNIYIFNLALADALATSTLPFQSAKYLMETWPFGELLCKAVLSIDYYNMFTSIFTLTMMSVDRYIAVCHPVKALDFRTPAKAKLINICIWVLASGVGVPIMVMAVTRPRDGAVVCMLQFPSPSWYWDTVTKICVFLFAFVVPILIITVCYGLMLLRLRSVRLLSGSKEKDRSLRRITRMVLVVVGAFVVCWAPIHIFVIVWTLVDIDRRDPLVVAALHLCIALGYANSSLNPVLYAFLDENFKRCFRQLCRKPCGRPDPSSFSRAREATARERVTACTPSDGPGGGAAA
T1 sequence (P41146 whole entry): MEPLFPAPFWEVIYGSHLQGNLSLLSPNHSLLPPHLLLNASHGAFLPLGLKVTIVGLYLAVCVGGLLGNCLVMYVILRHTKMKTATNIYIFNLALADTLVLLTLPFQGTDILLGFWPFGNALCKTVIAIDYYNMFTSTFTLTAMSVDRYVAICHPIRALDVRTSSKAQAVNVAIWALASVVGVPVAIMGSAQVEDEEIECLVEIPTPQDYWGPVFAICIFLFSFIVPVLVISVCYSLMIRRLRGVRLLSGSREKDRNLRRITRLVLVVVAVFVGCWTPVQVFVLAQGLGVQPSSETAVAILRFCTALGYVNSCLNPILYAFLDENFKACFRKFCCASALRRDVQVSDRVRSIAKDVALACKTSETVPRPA

N#CC1(c2ccccc2)CCN(Cc2cccc3ccccc23)CC1
inhibition (Nociceptin receptor [1]): 55% | Ki (Nociceptin receptor [2]): 0.827 µM

N#CC1(c2ccccc2)CCN(Cc2ccc3ccccc3c2)CC1
inhibition (Nociceptin receptor [1]): 70% | Ki (Nociceptin receptor [2]): 1.11 µM

O=C(COCc1ccccc1)N1CCC(O)(c2ccc(Br)cc2)CC1
inhibition (Nociceptin receptor [1]): 50% | Ki (Nociceptin receptor [2]): > 10 µM

N#CC1(c2ccccc2)CCN(Cc2ccc(Cl)c(Cl)c2)CC1
inhibition (Nociceptin receptor [1]): 65% | Ki (Nociceptin receptor [2]): 1.27 µM

OC1(c2cccc(C(F)(F)F)c2)CCN(Cc2ccc3ccccc3c2)CC1
inhibition (Nociceptin receptor [1]): 85% | Ki (Nociceptin receptor [2]): 0.715 µM

OC1(c2ccc(Cl)c(C(F)(F)F)c2)CCN(Cc2ccc3ccccc3c2)CC1
inhibition (Nociceptin receptor [1]): 70% | Ki (Nociceptin receptor [2]): 0.879 µM

OC1(c2cccc(C(F)(F)F)c2)CCN(CC2CCCCCCC2)CC1
Ki [3]: Not Active | Ki [4]: 4.24 µM | Ki (Nociceptin receptor [5]): 0.102 µM | Ki (Mu-type opioid receptor [6]): 0.113 µM | Selectivity ratio (Mu-type opioid receptor [7]): 1.11

OC1(c2ccc(Cl)c(C(F)(F)F)c2)CCN(C2Cc3ccccc3C2)CC1
Ki [8]: 10 µM | Ki [9]: Not Active | Ki (Nociceptin receptor [5]): 0.082 µM | Ki (Mu-type opioid receptor [6]): 0.019 µM | Selectivity ratio (Mu-type opioid receptor [7]): 0.23

N#CC1(c2ccccc2)CCN(Cc2ccc(F)cc2)CC1
inhibition (Nociceptin receptor [1]): 55% | Ki (Nociceptin receptor [2]): > 10 µM

CC(C)C1CCC(N2CCC(O)(c3ccc(Cl)c(C(F)(F)F)c3)CC2)CC1 (configuration not stated)
Ki [8]: 10 µM | Ki [9]: Not Active | Ki (Nociceptin receptor [5]): 0.033 µM | Ki (Mu-type opioid receptor [6]): 0.008 µM | Selectivity ratio (Mu-type opioid receptor [7]): 0.24

OC1(c2ccc(Cl)cc2)CCN(Cc2ccc3ccccc3c2)CC1
inhibition (Nociceptin receptor [1]): 90% | Ki (Nociceptin receptor [2]): 0.153 µM

OC1(c2ccc(Cl)c(C(F)(F)F)c2)CCN(Cc2ccc(F)cc2)CC1
inhibition (Nociceptin receptor [1]): 90% | Ki (Nociceptin receptor [2]): 0.234 µM

OC1(c2ccc(Cl)c(C(F)(F)F)c2)CCN(Cc2ccc(C(F)(F)F)cc2)CC1
inhibition (Nociceptin receptor [1]): 55% | Ki (Nociceptin receptor [2]): 1.19 µM

O=[N+]([O-])c1ccc(CN2CCC(O)(c3ccc(Cl)c(C(F)(F)F)c3)CC2)o1
inhibition (Nociceptin receptor [10]): inactive | Ki (Nociceptin receptor [2]): > 10 µM

OC1(c2cccc(C(F)(F)F)c2)CCN(C2CCC3CCCCC3C2)CC1 (configuration not stated)
Ki [8]: 10 µM | Ki [9]: Not Active | Ki (Nociceptin receptor [5]): 0.012 µM | Ki (Mu-type opioid receptor [6]): 0.021 µM | Selectivity ratio (Mu-type opioid receptor [7]): 1.75

OC1(c2ccc(Cl)cc2)CCN(CC2CCCCCCC2)CC1
Ki [9]: Not Active | Ki [3]: Not Active | Ki (Nociceptin receptor [5]): 0.502 µM | Ki (Mu-type opioid receptor [6]): 0.626 µM | Selectivity ratio (Mu-type opioid receptor [7]): 1.25

N#Cc1ccc(CN2CCC(O)(c3ccc(Cl)c(C(F)(F)F)c3)CC2)cc1
inhibition (Nociceptin receptor [11]): inactive | Ki (Nociceptin receptor [2]): > 10 µM

OC1(c2ccc(Cl)cc2)CCN(Cc2ccc(C(F)(F)F)cc2)CC1
inhibition (Nociceptin receptor [1]): 85% | Ki (Nociceptin receptor [2]): 0.307 µM

OC1(c2ccc(Cl)c(C(F)(F)F)c2)CCN(CC2CCCCCCC2)CC1
Ki [8]: 8.78 µM | Ki [4]: 1.65 µM | Ki (Nociceptin receptor [5]): 0.047 µM | Ki (Mu-type opioid receptor [6]): 0.124 µM | Selectivity ratio (Mu-type opioid receptor [7]): 2.64

OC1(c2cccc(C(F)(F)F)c2)CCN(Cc2ccc(F)cc2)CC1
inhibition (Nociceptin receptor [1]): 80% | Ki (Nociceptin receptor [2]): 0.692 µM

CCCC1CCC(N2CCC(O)(c3cccc(C(F)(F)F)c3)CC2)CC1 (configuration not stated)
Ki [3]: Not Active | Ki [4]: 6 µM | Ki (Nociceptin receptor [5]): 0.135 µM | Ki (Mu-type opioid receptor [6]): 0.046 µM | Selectivity ratio (Mu-type opioid receptor [7]): 0.34

OC1(c2cccc(C(F)(F)F)c2)CCN(CCC(c2ccccc2)c2ccccc2)CC1
Ki [8]: 9.39 µM | Ki [9]: Not Active | Ki (Nociceptin receptor [5]): 0.116 µM | Ki (Mu-type opioid receptor [6]): 0.001 µM | Selectivity ratio (Mu-type opioid receptor [7]): 0.01

OC1(c2ccc(Cl)c(C(F)(F)F)c2)CCN(CCC(c2ccccc2)c2ccccc2)CC1
Ki [9]: Not Active | Ki [3]: Not Active | Ki (Nociceptin receptor [5]): 0.225 µM | Ki (Mu-type opioid receptor [6]): 0.004 µM | Selectivity ratio (Mu-type opioid receptor [7]): 0.02

Cc1ccc2ccccc2c1CN1CCC(C#N)(c2ccccc2)CC1
inhibition (Nociceptin receptor [10]): inactive | Ki (Nociceptin receptor [2]): > 10 µM

CC(C)C1CCC(N2CCC(O)(c3cccc(C(F)(F)F)c3)CC2)CC1 (configuration not stated)
Ki [4]: 4.15 µM

OC1(c2cccc(C(F)(F)F)c2)CCN(Cc2ccc(C(F)(F)F)cc2)CC1
Ki (Nociceptin receptor [2]): 6.52 µM
